Values after ≈ are worked out from the molar mass of the structure shown. Square brackets hold non-standard residues; d marks the D form. Ends that are not written are not given here. Peptide text beside a SMILES is read from it. Orn = NCCC[C@H](N)C(=O)O
Key:
[1] = system: Mannheimia haemolytica ATCC 33393; assay: MIC, broth dilution; type: cell-based; conditions: Table 11; highest concentration 25 μg/mL
Experimental: (§1) MIC determination. MICs were measured using peptides with 95% purity. For bacterial studies, cation-adjusted Mueller Hinton (MH) broth was used as the growth medium whereas Yeast Peptone Dextrose (YPD; 10 g/L yeast extract, 20 g/L peptone, 20 g/L dextrose) was used for Candida spp. and other yeast. Microorganisms were diluted to an optical density of […] in MH or YPD broth and a 180 μl volume was mixed with 20 μl of peptide arrayed as a 2-fold dilution series in a flat-bottom 96-well microtitre plate. A control was performed using 20 μl of sterile water. Plates were incubated as standing cultures overnight at 37° C.
(§2) Determination of minimum inhibitory concentrations. The MICs were measured for bioactive peptides identified from the initial screen. For bacterial studies, cation-adjusted Mueller Hinton (MH) broth was used as the growth medium whereas YPD was used for C. albicans. Bacterial cultures were diluted to a OD value of 6×10^−4 in MH broth and a 180 μl volume was mixed with 20 μl of peptide arrayed as 2-fold dilution series in a 96-well plate. For the positive control, 20 μl of sterile water was used. Plates were incubated as standing cultures overnight at 37° C. The lowest peptide concentration that resulted no observed microbial growth after an overnight treatment was defined as the MIC.
The ability of STIP3 variants to inhibit the growth of Mannheimia haemolytica ATCC 33393 was evaluated. This included an alanine scan of STIP3-1 (FIG. 8 & Table 10) as well as 30 rationally-designed STIPs that were evaluated in the preceding Examples against other pathogens (Table 11). Substitutions at a greater number of sites were tolerated in the context of antimicrobial activity. Moreover, the inclusion of basic natural and unnatural amino acids (e.g. lysine, ornithine, and arginine) at positions 3, 4 and 11 (i.e. X1, X2, and X4 of SEQ ID NO: 32) to afford a more uniformly cationic peptide increased activity against M. haemolytica.

C. albicans MYA-2876 = assay: MIC, YPD broth; type: cell-based, Candida albicans; conditions: Table 8
Experimental: as §1, §2

[2] = system: Candida lusitaniae AR 398; assay: MIC, YPD broth, CDC and FDA AR Candida isolate panel; type: cell-based; conditions: Table 9 below the line: only 200 or 100 μg/mL tested; values reported as 100 are ≤100 μg/mL
Experimental: as §1

[3] = system: Candida haemulonii AR 393; assay: as above; type: cell-based; conditions: Table 9 below the line: only 200 or 100 μg/mL tested; values reported as 100 are ≤100 μg/mL
Experimental: as §1

[4] = system: Saccharomyces cerevisiae AR 399; assay: as above; type: cell-based; conditions: Table 9 below the line: only 200 or 100 μg/mL tested; values reported as 100 are ≤100 μg/mL
Experimental: as §1

Kodamae ohmeri AR 396 = assay: as above; type: cell-based; conditions: Table 9 below the line: only 200 or 100 μg/mL tested; values reported as 100 are ≤100 μg/mL
Experimental: as §1

[5] = system: Candida duobushaemulonii AR 394; assay: as above; type: cell-based; conditions: Table 9 below the line: only 200 or 100 μg/mL tested; values reported as 100 are ≤100 μg/mL
Experimental: as §1

[6] = system: Candida haemulonii AR 395; assay: as above; type: cell-based; conditions: Table 9 below the line: only 200 or 100 μg/mL tested; values reported as 100 are ≤100 μg/mL
Experimental: as §1

Candida krusei AR 397 = assay: as above; type: cell-based; conditions: Table 9 below the line: only 200 or 100 μg/mL tested; values reported as 100 are ≤100 μg/mL
Experimental: as §1

[7] = system: Candida duobushaemulonii AR 391; assay: as above; type: cell-based; conditions: Table 9 below the line: only 200 or 100 μg/mL tested; values reported as 100 are ≤100 μg/mL
Experimental: as §1

[8] = system: Candida duobushaemulonii AR 392; assay: as above; type: cell-based; conditions: Table 9 below the line: only 200 or 100 μg/mL tested; values reported as 100 are ≤100 μg/mL
Experimental: as §1

[9] = system: Saccharomyces cerevisiae AR 400; assay: as above; type: cell-based; conditions: Table 9 below the line: only 200 or 100 μg/mL tested; values reported as 100 are ≤100 μg/mL
Experimental: as §1

[10] = system: S. aureus ATCC BAA-2094 (MRSA SCCmec type V); assay: MIC, broth dilution; type: cell-based, Staphylococcus aureus; conditions: Table 5; STIP3 variants, highest concentration 100 μg/mL
Experimental: as §1, §2

[11] = system: S. aureus ATCC BAA-1683 (MRSA SCCmec type IV); assay: MIC, broth dilution; type: cell-based, Staphylococcus aureus; conditions: Table 5; STIP3 variants, highest concentration 100 μg/mL
Experimental: as §1, §2

[12] = system: S. aureus ATCC BAA-42 (MRSA SCCmec type VI); assay: MIC, broth dilution; type: cell-based, Staphylococcus aureus; conditions: Table 5; STIP3 variants, highest concentration 100 μg/mL
Experimental: as §1, §2

[13] = system: S. aureus ATCC BAA-44 (MRSA SCCmec type I); assay: MIC, broth dilution; type: cell-based, Staphylococcus aureus; conditions: Table 5; STIP3 variants, highest concentration 100 μg/mL
Experimental: as §1, §2

[14] = system: S. aureus ATCC 33592 (MRSA SCCmec type III); assay: MIC, broth dilution; type: cell-based, Staphylococcus aureus; conditions: Table 5; STIP3 variants, highest concentration 100 μg/mL
Experimental: as §1, §2

S. aureus ATCC 29213 = assay: MIC, broth dilution; type: cell-based, Staphylococcus aureus; conditions: Table 5; STIP3 variants, highest concentration 100 μg/mL
Experimental: as §1, §2

[15] = system: S. aureus ATCC BAA-2313 (MRSA SCCmec type XI); assay: MIC, broth dilution; type: cell-based, Staphylococcus aureus; conditions: Table 5; STIP3 variants, highest concentration 100 μg/mL
Experimental: as §1, §2

[16] = system: S. aureus ATCC BAA-41 (MRSA SCCmec type II); assay: MIC, broth dilution; type: cell-based, Staphylococcus aureus; conditions: Table 5; STIP3 variants, highest concentration 100 μg/mL
Experimental: as §1, §2

Compound | MIC (μg/mL) M. haemolytica [1] | MIC C. albicans MYA-2876 (C. albicans MYA-2876) | MIC (μg/mL) Candida lusitaniae AR 398 [2] | MIC (μg/mL) Candida haemulonii AR 393 [3] | MIC (μg/mL) Saccharomyces cerevisiae AR 399 [4] | MIC (μg/mL) Kodamae ohmeri AR 396 (Kodamae ohmeri AR 396) | MIC (μg/mL) Candida duobushaemulonii AR 394 [5] | MIC (μg/mL) Candida haemulonii AR 395 [6] | MIC (μg/mL) Candida krusei AR 397 (Candida krusei AR 397) | MIC (μg/mL) Candida duobushaemulonii AR 391 [7] | MIC (μg/mL) Candida duobushaemulonii AR 392 [8] | MIC (μg/mL) Saccharomyces cerevisiae AR 400 [9] | MIC S. aureus ATCC BAA 2094 (V) [10] | MIC S. aureus ATCC BAA 1683 (IV) [11] | MIC S. aureus ATCC BAA 42 (VI) [12] | MIC S. aureus ATCC BAA 44 (I) [13] | MIC S. aureus ATCC 33592 (III) [14] | MIC S. aureus ATCC 29213 (S. aureus ATCC 29213) | MIC S. aureus ATCC BAA 2313 (XI) [15] | MIC S. aureus ATCC BAA 41 (II) [16]
CC[C@H](C)[C@H](NC(=O)[C@H](Cc1c[nH]c2ccccc12)NC(=O)[C@H](CCCN)NC(=O)[C@@H](NC(=O)[C@H](CC(C)C)NC(=O)[C@H](C)NC(=O)[C@H](CCCN)NC(=O)[C@@H](NC(=O)[C@@H](N)[C@@H](C)O)C(C)C)C(C)C)C(=O)N[C@@H](CC(C)C)C(=O)N[C@@H](CCCN)C(=O)N[C@H](C(=O)N[C@H](C(=O)N[C@@H](C)C(=O)N[C@@H](CCCN)C(=O)N[C@@H](Cc1ccccc1)C(=O)N[C@@H](C)C(=O)O)C(C)C)[C@@H](C)O [STIP3-22, TVXALVXWILXTVAXFA] (H-TV[Orn]ALV[Orn]WIL[Orn]TVA[Orn]FA-OH; N-terminus and C-terminus assumed) | 6.25 µg/mL (≈ 3.36 µM) | > (> symbol indicates that no inhibition was observed at the highest concentration of peptide tested: 100 μg/mL) | ≤ 100 µg/mL | > (values below the line were determined using two concentrations of peptide 200 or 100 μg/mL) | ≤ 100 µg/mL | > (values below the line were determined using two concentrations of peptide 200 or 100 μg/mL) | > (values below the line were determined using two concentrations of peptide 200 or 100 μg/mL) | > (values below the line were determined using two concentrations of peptide 200 or 100 μg/mL) | ≤ 100 µg/mL | > (values below the line were determined using two concentrations of peptide 200 or 100 μg/mL) | > (values below the line were determined using two concentrations of peptide 200 or 100 μg/mL) | ≤ 100 µg/mL | 25 µg/mL (≈ 13.4 µM) | 25 µg/mL (≈ 13.4 µM) | 25 µg/mL (≈ 13.4 µM) | 25 µg/mL (≈ 13.4 µM) | 25 µg/mL (≈ 13.4 µM) | 25 µg/mL (≈ 13.4 µM) | 100 µg/mL (≈ 53.8 µM) | 25 µg/mL (≈ 13.4 µM)
TVAGLVKWILATVKKFA [STIP3-15, TVAGLVKWILATVKKFA] | 25 µg/mL | 25 µg/mL | ≤ 100 µg/mL | > (values below the line were determined using two concentrations of peptide 200 or 100 μg/mL) | ≤ 100 µg/mL | ≤ 100 µg/mL | > (values below the line were determined using two concentrations of peptide 200 or 100 μg/mL) | > (values below the line were determined using two concentrations of peptide 200 or 100 μg/mL) | ≤ 100 µg/mL | > (values below the line were determined using two concentrations of peptide 200 or 100 μg/mL) | > (values below the line were determined using two concentrations of peptide 200 or 100 μg/mL) | ≤ 100 µg/mL | 25 µg/mL | 25 µg/mL | 50 µg/mL | 25 µg/mL | 12.5 µg/mL | 25 µg/mL | 50 µg/mL | 50 µg/mL
